US20260144796A1, “Compounds and Methods for Improving Health” (Acurx Pharmaceuticals, Inc., priority 2022, published 2026)
≈ marks a conversion by molar mass, not a printed value. Where two headings read alike, the source gives them in different places.

Legend:
gut microbiome = assay: Phase 2a CDI clinical trial, gut microbiome (metagenomics); assay type: in vivo, human; conditions: CDI patients; for Proportion of isolated Firmicutes, Peptostreptococcaceae: baseline 2%; for Proportion of isolated Firmicutes, Other: baseline 5%; for Proportion of isolated Firmicutes, Ruminococcaceae: baseline 7%; for Proportion of isolated Firmicutes, Streptococcaceae: baseline 13%; for Proportion of isolated Firmicutes, Erysipelotrichaceae: baseline 18%; for Proportion of isolated Firmicutes, Lachnospiraceae: baseline 30%
Experimental: Phase 2a of this trial was an open label cohort of 10 subjects from study centers in the United States. In this cohort, 10 patients with diarrhea caused by mild or moderate C. difficile diagnosed via toxin EIA+ were treated with ibezapolstat 450 mg orally, twice daily for 10 days. All patients were followed for recurrence for 28±2 days. Stool was collected during course of therapy and at follow up. Patient fecal samples were evaluated for C. difficile culture and microbiome changes. […] Favorable microbiome changes included overgrowth of Actinobacteria and Firmicutes phylum species while on therapy. These findings support that microbiome effects may be predictive of beneficial patient outcomes including low rates of recurrence.
Phase 2a of this trial was an open label cohort of 10 subjects from study centers in the United States. In this cohort, 10 patients with diarrhea caused by mild or moderate C. difficile diagnosed via toxin EIA+ were treated with ibezapolstat 450 mg orally, twice daily for 10 days. Stool was collected during the course of therapy and at follow up.
Stool DNA was extracted using a DNAeasy Power Soil Pro kit (Qiagen, catalog number 1288-100) in a QiaCube automated DNA extraction system as previously described. (Garey K W, et al. A randomized, double-blind, placebo-controlled, single and multiple ascending dose Phase 1 study to determine the safety, pharmacokinetics and food and faecal microbiome effects of ibezapolstat administered orally to healthy subjects. J Antimicrob Chemother 2020; 75 (12): 3635-3643). Shotgun metagenomic sequencing was carried out at the University of Houston Sequencing and Gene Editing Core (Houston, TX USA) using the Nextera DNA Flex Library Prep Kit for DNA library preparation and an Illumina NextSeq 500 platform for sequencing. CLC Genomic Workbench version 12 (Qiagen) was used for metagenomic assembly and creation of the abundance table.
16S rRNA sequencing was performed to characterize microbial taxonomy as described in Gonzales-Luna 2021. The V3-V4 region of the 16S rRNA gene was sequenced using an Illumina-based sequencing platform with a minimum of 15,000 reads per sample to assess the gut microbiome community structure. Quality filtered sequence reads with at least 97% similarity were clustered into Operational Taxonomic Units (OTUs) and representative sequences from each OTU were assigned a taxonomic identity at the species level by searching against the NCBI 16S rRNA sequence database (release date Sep. 1, 2018) using NCBI BLAST+ package v2.8.1 2018.
The DNA extracted from fecal samples previously used for 16S rRNA sequencing was shotgun metagenome sequenced using an Illumina-based platform for analysis of microbiome functional genes. The functional gene profiling of the shotgun metagenome was performed using HUMAnN2 v0.11.2 pipeline.35 In the preprocessing step, quality filtering of sequencing reads was performed and followed by screening and removal of contaminant host (human) reads. Trimmomatic v0.38 was used for the filtering and trimming of raw sequence data with the default cut-off settings. The reads were searched against a human genome database in paired-end mode using bowtie2 algorithm and were discarded if they were mapped to the database. To obtain the gene family profiles, these quality-controlled metagenome sequences were first searched against a nucleotide database (ChocoPhlAn) using bowtie2 and then against a protein database (UniRef90) using diamond. All the identified gene families were annotated using UniRef90 and pathways using MetaCyc identifiers.

Blautia sp. = assay: MIC determination, stool Firmicute isolates; assay type: cell-based; conditions: N=1
Excerpt: (§1) Fecal samples homogenized in reduced PBS (0.1 g stool/ml PBS) and serially diluted and plated directly onto YCFA7 agar supplemented with 0.002 g/ml each of glucose, maltose and cellobiose in large (13.5 cm diameter) petri dishes. Isolated colonies were identified by PCR amplification of the full-length 16S rRNA gene (using 7F (5′-[…]-3′) forward primer and 1510R (5′-[…]-3′) reverse primer followed by Sanger sequencing. Full-length 16S rRNA gene sequence reads were aligned using CLC Genomics (Qiagen) using the Ribosomal Database Project (RDP) as reference to classify reads to Operational Taxonomic Units (OTUs). The full-length 16S rRNA gene sequence of each species-level OTU was compared to the Ribosomal Database Project (RDP) reference database to assign taxonomic designations to the genus level and a BLAST search performed to identify any candidate novel species.
(§2) Strains plated onto blood agar (Hardy Diagnostics) with a 24-hour incubation at 37° C. in an anaerobic environment (Coy vinyl anaerobic chamber). After incubation, 3-5 well-isolated colonies were suspended into 5 mL of BHI broth (Criterion Media). The cultures were incubated in an anaerobic chamber for 24 hours to achieve a 0.5 McFarland Standard. Brucella agar with 5% hemin (5 ug/mL) (Sigma), vitamin K (10 ug/mL), and defibrinated sheep blood (Northeast Lab Services). The supplemented brucella agar was then utilized for two-fold serial dilution to create plates with IBZ concentration of 0.5 to 16 μg/mL plates. Plates were allowed to dry in a sterile location. After drying, the plates were covered with foil to prevent any photo-damage to the hemin and placed in the anaerobic chamber for 1 hour to reduce the media. The broth culture was then spotted onto the plates and covered with foil. Plates were allowed to dry completely before inverting them for incubation for 48 hours. Plates were analyzed and MIC recorded.

Enterococcus mundtii = assay: MIC determination, stool Firmicute isolates; assay type: cell-based; conditions: N=1
Excerpt: as §1, §2

Enterococcus avium = assay: MIC determination, stool Firmicute isolates; assay type: cell-based
Excerpt: as §1, §2

[1] = system: Erysipelatoclostridium ramosum; assay: MIC determination, stool Firmicute isolates; assay type: cell-based; conditions: Thomasclavelia ramosa
[2] = 450 mg orally twice daily 10 days, day 3
[3] = 450 mg orally twice daily 10 days, day 5
[4] = 450 mg orally twice daily 10 days, day 8
[5] = 450 mg orally twice daily 10 days, day 10
[6] = 450 mg orally twice daily 10 days, day 12

Structure (SMILES): O=c1[nH]c(NCc2ccc(Cl)c(Cl)c2)nc2ncn(CCN3CCOCC3)c12 [Ibezapolstat, 2-((3,4-dichlorobenzyl)amino)-7-(2-morpholinoethyl)-1,7-dihydro-6H-purin-6-one]
- Proportion of isolated Firmicutes, Eubacteriales Family XIII (gut microbiome; [2]): 2%
- Proportion of isolated Firmicutes, Peptostreptococcaceae (gut microbiome; [2]): 1%
- Proportion of isolated Firmicutes, Other (gut microbiome; [2]): 9%
- Proportion of isolated Firmicutes, Ruminococcaceae (gut microbiome; [2]): 25%
- Proportion of isolated Firmicutes, Streptococcaceae (gut microbiome; [2]): 3%
- Proportion of isolated Firmicutes, Erysipelotrichaceae (gut microbiome; [2]): 24%
- Proportion of isolated Firmicutes, Lachnospiraceae (gut microbiome; [2]): 37%
- Proportion of isolated Firmicutes, Eubacteriales Family XIII (gut microbiome; [3]): 1%
- Proportion of isolated Firmicutes, Other (gut microbiome; [3]): 10%
- Proportion of isolated Firmicutes, Ruminococcaceae (gut microbiome; [3]): 38%
- Proportion of isolated Firmicutes, Streptococcaceae (gut microbiome; [3]): 1%
- Proportion of isolated Firmicutes, Erysipelotrichaceae (gut microbiome; [3]): 10%
- Proportion of isolated Firmicutes, Lachnospiraceae (gut microbiome; [3]): 38%
- Proportion of isolated Firmicutes, Eubacteriales Family XIII (gut microbiome; [4]): 3%
- Proportion of isolated Firmicutes, Peptostreptococcaceae (gut microbiome; [4]): 5%
- Proportion of isolated Firmicutes, Other (gut microbiome; [4]): 9%
- Proportion of isolated Firmicutes, Ruminococcaceae (gut microbiome; [4]): 30%
- Proportion of isolated Firmicutes, Streptococcaceae (gut microbiome; [4]): 4%
- Proportion of isolated Firmicutes, Erysipelotrichaceae (gut microbiome; [4]): 9%
- Proportion of isolated Firmicutes, Veillonellaceae (gut microbiome; 450 mg orally twice daily 10 days, day 8, baseline 19%): 5%
- Proportion of isolated Firmicutes, Lachnospiraceae (gut microbiome; [4]): 33%
- Proportion of isolated Firmicutes, Eubacteriales Family XIII (gut microbiome; [5]): 5%
- Proportion of isolated Firmicutes, Peptostreptococcaceae (gut microbiome; [5]): 4%
- Proportion of isolated Firmicutes, Other (gut microbiome; [5]): 8%
- Proportion of isolated Firmicutes, Ruminococcaceae (gut microbiome; [5]): 26%
- Proportion of isolated Firmicutes, Streptococcaceae (gut microbiome; [5]): 5%
- Proportion of isolated Firmicutes, Erysipelotrichaceae (gut microbiome; [5]): 17%
- Proportion of isolated Firmicutes, Lachnospiraceae (gut microbiome; [5]): 35%
- Proportion of isolated Firmicutes, Eubacteriales Family XIII (gut microbiome; [6]): 4%
- Proportion of isolated Firmicutes, Peptostreptococcaceae (gut microbiome; [6]): 6%
- Proportion of isolated Firmicutes, Other (gut microbiome; [6]): 10%
- Proportion of isolated Firmicutes, Ruminococcaceae (gut microbiome; [6]): 24%
- Proportion of isolated Firmicutes, Streptococcaceae (gut microbiome; [6]): 2%
- Proportion of isolated Firmicutes, Erysipelotrichaceae (gut microbiome; [6]): 6%
- Proportion of isolated Firmicutes, Lachnospiraceae (gut microbiome; [6]): 44%
- Actinobacteria abundance after starting treatment (gut microbiome; primarily Coriobacteriales): increased in abundance
- MIC50 (Blautia sp.): 12.5 µg/mL (≈ 29.5 µM)
- MIC50 (Enterococcus mundtii): 12.5 µg/mL (≈ 29.5 µM)
- MIC50 (Enterococcus avium; N=2): 12.5 µg/mL (≈ 29.5 µM)
- MIC (Enterococcus avium; N=2, read-out: MIC Max): 12.5 µg/mL (≈ 29.5 µM)
- MIC (Enterococcus avium; N=2, read-out: MIC Min): 12.5 µg/mL (≈ 29.5 µM)
- MIC50 ([1]; N=5): 6.25 µg/mL (≈ 14.8 µM)
- MIC ([1]; N=5, read-out: MIC Max): 100 µg/mL (≈ 236 µM)
- MIC ([1]; N=5, read-out: MIC Min): 3.12 µg/mL (≈ 7.38 µM)
